Assay results reported in patent publication US8563714B2, “Bridged spiro [2.4] heptane derivatives as ALX receptor and/or FPRL2 agonists” (Actelion Pharmaceuticals Ltd., priority 2009, dated 2013).

What was measured:
human ALX receptor = molecular target: T1, human ALX receptor (Homo sapiens, UniProt P25090); assay: Intracellular calcium measurements (FLIPR), agonistic activity in HEK293-hALXR-Gα16 cells; format: cell-based; conditions: Fluo-4 calcium FLIPR, normalized to WKYMVm 10 nM
T1 construct: expressed in transfected cells; host or cells: HEK293 (HEK293-hALXR-Gα16)
T1 sequence (P25090 1-351): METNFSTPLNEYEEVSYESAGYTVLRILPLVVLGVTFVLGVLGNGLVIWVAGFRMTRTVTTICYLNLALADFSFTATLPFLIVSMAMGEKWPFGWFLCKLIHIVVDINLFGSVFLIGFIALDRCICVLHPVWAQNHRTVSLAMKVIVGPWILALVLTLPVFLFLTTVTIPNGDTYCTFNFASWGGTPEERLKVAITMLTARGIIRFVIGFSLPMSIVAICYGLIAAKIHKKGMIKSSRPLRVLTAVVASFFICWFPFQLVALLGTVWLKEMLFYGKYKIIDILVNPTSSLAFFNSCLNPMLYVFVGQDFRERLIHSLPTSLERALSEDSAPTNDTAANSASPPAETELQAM
Method in brief: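 Agonist-induced calcium flux was recorded by FLIPR (488/540 nm) in HEK293-hALXR-Gα16 cells pre-loaded with Fluo-4 AM (1 μM, 60 min, 37°C). Peak signal above baseline, after subtracting buffer addition, was expressed relative to WKYMVm at 10 nM final.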

human FPRL2 = molecular target: T2, human FPRL2 (Homo sapiens, UniProt P25089); assay: Intracellular calcium measurements (FLIPR), agonistic activity in HEK293-hFPRL2-Gα16 cells; format: cell-based; conditions: Fluo-4 calcium FLIPR, normalized to GLY14-Humanin 100 nM
T2 construct: expressed in transfected cells; host or cells: HEK293 (HEK293-hFPRL2-Gα16)
T2 sequence (P25089 1-353): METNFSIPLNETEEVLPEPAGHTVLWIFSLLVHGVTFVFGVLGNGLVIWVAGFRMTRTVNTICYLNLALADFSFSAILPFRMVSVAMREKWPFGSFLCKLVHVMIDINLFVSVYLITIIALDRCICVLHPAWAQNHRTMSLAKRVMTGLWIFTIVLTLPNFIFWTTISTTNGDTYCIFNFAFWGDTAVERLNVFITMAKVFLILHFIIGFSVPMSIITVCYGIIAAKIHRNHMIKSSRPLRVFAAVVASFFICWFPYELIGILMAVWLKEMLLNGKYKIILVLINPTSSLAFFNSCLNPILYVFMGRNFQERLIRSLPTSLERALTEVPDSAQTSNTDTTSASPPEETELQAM
Method in brief: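 Peak values after baseline subtraction are expressed relative to 100 nM Gly14-Humanin; compounds diluted in assay buffer from 10 mM DMSO stocks.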

Row | SMILES | EC50 (human ALX receptor) | EC50 (human FPRL2)
1 | O=C(NCCCCN1CCCC1)[C@H]1[C@H](C(=O)NCc2ccc(F)cc2Br)[C@@H]2C=C[C@H]1C21CC1 (racemic) [Example 353, (5R*)—N^5-(2-Bromo-4-fluorophenyl-methyl)-(6R*)—N^6-(4-pyrrolidino-butyl)-(4S*,7R*)-[4,7-ethenylene-spiro[2.4]heptane]-5,6-dicarboxamide] | 6.9 µM | 0.256 µM
2 | O=C(NCCCCN1CCCC1)[C@H]1[C@H](C(=O)NCc2ccc(F)c(Br)c2)[C@@H]2C=C[C@H]1C21CC1 (racemic) [Example 354, (5R*)—N^5-(3-Bromo-4-fluorophenyl-methyl)-(6R*)—N^6-(4-pyrrolidino-butyl)-(4S*,7R*)-[4,7-ethenylene-spiro[2.4]heptane]-5,6-dicarboxamide] | 7.41 µM | 0.223 µM
3 | O=C(NCCCCN1CCCC1)[C@H]1[C@H](C(=O)NCc2cc(F)cc(F)c2F)[C@@H]2C=C[C@H]1C21CC1 (racemic) [Example 355, (5R*)—N^5-(2,3,5-Trifluorophenyl-methyl)-(6R*)—N^6-(4-pyrrolidino-butyl)-(4S*,7R*)-[4,7-ethenylene-spiro[2.4]heptane]-5,6-dicarboxamide] | 7.5 µM | 0.477 µM
4 | Cc1nonc1CNC(=O)[C@H]1[C@H](C(=O)NCCCCN2CCCC2)[C@H]2C=C[C@@H]1C21CC1 (racemic) [Example 356, (5R*)—N^5-[(4-Methyl-1,2,5-oxadiazol-3-yl)methyl]-(6R*)—N^6-(4-pyrrolidino-butyl)-(4S*,7R*)-[4,7-ethenylene-spiro[2.4]heptane]-5,6-dicarboxamide] | 7.71 µM | 0.948 µM
5 | O=C(NCCCCN1CCCC1)[C@H]1[C@H](C(=O)NCc2cccc(C(F)(F)F)c2F)[C@@H]2C=C[C@H]1C21CC1 (racemic) [Example 357, (5R*)—N^5-(2-Fluoro-3-trifluoromethylphenyl-methyl)-(6R*)—N^6-(4-pyrrolidino-butyl)-(4S*,7R*)-[4,7-ethenylene-spiro[2.4]heptane]-5,6-dicarboxamide] | 7.91 µM | 0.29 µM
6 | Cc1cc(C)cc(CNC(=O)[C@H]2[C@H](C(=O)NCCCCN3CCCC3)[C@H]3C=C[C@@H]2C32CC2)c1 (racemic) [Example 358, (5R*)—N^5-(3,5-Dimethylphenyl-methyl)-(6R*)—N^6-(4-pyrrolidino-butyl)-(4S*,7R*)-[4,7-ethenylene-spiro[2.4]heptane]-5,6-dicarboxamide] | 7.98 µM | 0.176 µM
7 | CC(=O)c1cccc(CNC(=O)[C@H]2[C@H](C(=O)NCCCCN3CCCC3)[C@H]3C=C[C@@H]2C32CC2)c1 (racemic) [Example 359, (5R*)—N^5-(3-Acetylphenyl-methyl)-(6R*)—N^6-(4-pyrrolidino-butyl)-(4S*,7R*)-[4,7-ethenylene-spiro[2.4]heptane]-5,6-dicarboxamide] | 8.35 µM | 0.359 µM
8 | O=C(NCCCCN1CCCC1)[C@H]1[C@H](C(=O)NCc2cccc(OC(F)F)c2)[C@@H]2C=C[C@H]1C21CC1 (racemic) [Example 360, (5R*)—N^5-(3-Difluoromethoxyphenyl-methyl)-(6R*)—N^6-(4-pyrrolidino-butyl)-(4S*,7R*)-[4,7-ethenylene-spiro[2.4]heptane]-5,6-dicarboxamide] | 8.7 µM | 0.53 µM
9 | COc1cc(CNC(=O)[C@H]2[C@H](C(=O)NCCCCN3CCCC3)[C@H]3C=C[C@@H]2C32CC2)ccn1 (racemic) [Example 361, (5R*)—N^5-[(2-Methoxypyridin-4-yl)methyl]-(6R*)—N^6-(4-pyrrolidino-butyl)-(4S*,7R*)-[4,7-ethenylene-spiro[2.4]heptane]-5,6-dicarboxamide] | 8.87 µM | 0.33 µM
